“And” between values parts separate entries of the source, which are not always exact repeats. Equal values may be shown once. “Also recorded” adds a separate entry of the source.
Tests used:
Assay type in all cases: in vivo, human
[1] = test system: patients with indolent B cell lymphoma (iNHL); test: Phase IIa study: patient disposition (discontinuation, treatment duration) on single agent cerdulatinib; conditions: r/r iNHL, 30 mg BID
Protocol: (§1) This example describes a phase IIa study designed to determine the safety, efficacy, pharmacokinetics, and pharmacodynamics of cerdulatinib at the selected phase II dose of 30 mg BID, dosed in 28 day cycles, in patients with r/r B or T cell malignancies.
Up to 50 patients were enrolled in 5 cohorts; aggressive lymphoma, iNHL, CLL/SLL, PTCL (all receiving single agent cerdulatinib), and iNHL with cerdulatinib in combination with anti-CD20 therapy. Patients remained on drug until discontinuation due to progressive disease (PD), adverse event (AE), withdrawal of consent (WC), or at the discretion of the treating physician. […]

[2] = test system: circulating B cell subsets; test: B cell subpopulation analysis of patient PBMC by flow cytometry over time on cerdulatinib
Protocol: (§2) Forty patients with iNHL were enrolled in a cohort receiving single agent cerdulatinib. From this cohort, 30 ml of whole blood was collected from each patient at pre-dose at baseline (C1), cycle 2 day 1 (C2), cycle 3 day 1 (C3), and cycle 6 day 1 (C6) in 10 ml mononuclear cell protection tubes (CPT tubes, BD Bioscience, San Jose, CA) and immediately centrifuged to separate mononuclear cells from plasma and red blood cells at each clinical site. At each time point, tubes were shipped for same day delivery to Caprion Biosciences, Montreal Canada, for preparation and live cell freezing of peripheral blood mononuclear cells (PBMC) by ficoll gradient centrifugation using standard procedures. Banked PBMC’s were stored at -80° C. until 5-8 patient samples through cycle 6 were obtained to enable batched flow cytometry analysis of B cell subsets for each patient over time.
PBMC’s were thawed and rested overnight in RPMI containing 10% fetal bovine serum. Cells were then stained with a cocktail containing Aqua live/dead cell stain (Life Technologies, Carlsbad, CA), and the following antibodies all obtained from BD Biosciences; CD19 PE-Cy7, CD20 BUV395, HLA-DR APC-Cy7, CD27 BV786, IgD PE, CD10 BV650, CD38 BV711, CD138 BV421, IgG BV605, and IgM APC. Cells were stained for 1 hour at room temperature, washed in phosphate buffered saline containing 0.5% bovine serum albumin, and subjected to flow cytometry using the BD Cantos. A maximum number of events was collected, the median number of total B cells collected was 18,789. The B cell subset gating strategy is described in FIG. 1.
Live B cells were then gated based on aqua viability stain and CD19. IgD and CD27 delineated double negative (DN), naïve, switched memory (SM), and non-switched memory (NSM). Within the naive cell area transitional B cells were identified based on CD10 expression. Within the SM area IgG and IgM switched B cells were identified. Plasma cells were identified based on high CD27 expression and CD138. Percent lymphocytes of total live PBMC’s were also calculated. All gating and calculation of B cell subset frequencies either from the total B cell gate or the immediate parent gate of a B cell subset were calculated using Flow Jo software (Tree Star, Inc., Ashland, OR), and analyzed.

[3] = test system: patients with indolent B cell lymphoma (iNHL); test: Phase IIa study: clinical response (best response) to single agent cerdulatinib in r/r iNHL patients grouped by baseline B cell subsets; conditions: 30 mg BID
Protocol: as §1
Up to 50 patients were enrolled in 5 cohorts; aggressive lymphoma, iNHL, CLL/SLL, PTCL (all receiving single agent cerdulatinib), and iNHL with cerdulatinib in combination with anti-CD20 therapy. Patients remained on drug until discontinuation due to progressive disease (PD), adverse event (AE), withdrawal of consent (WC), or at the discretion of the treating physician.
as §2
A PCA analysis of the data was performed to identify subgroups of patients characterized by a common B cell phenotype. Subsequent analysis of the results of the PCA by hierarchical clustering was performed.

[4] = iNHL patients, baseline (C1) vs cycles 2, 3, 6, FIG. 5A

Compound: CCS(=O)(=O)N1CCN(c2ccc(Nc3ncc(C(N)=O)c(NC4CC4)n3)cc2)CC1 [cerdulatinib, 4-(cyclopropylamino)-2-((4-(4-(ethylsulfonyl)piperazin-1-yl)phenyl)amino)pyrimidine-5-carboxamide]
- Discontinuation due to AE (adverse event), number of patients ([1]; G1 (N=9)): 4.00
- Discontinuation due to AE (adverse event), percent of patients ([1]; G1 (N=9)): 44.4%
- Discontinuation due to PD (progressive disease), number of patients ([1]; G1 (N=9)): 1.00
- Discontinuation due to PD (progressive disease), percent of patients ([1]; G1 (N=9)): 11.1%
- Discontinuation due to AE (adverse event), number of patients ([1]; G2 (N=16)): 1.00
- Discontinuation due to AE (adverse event), percent of patients ([1]; G2 (N=16)): 6.3%
- Discontinuation due to PD (progressive disease), number of patients ([1]; G2 (N=16)): 6.00
- Discontinuation due to PD (progressive disease), percent of patients ([1]; G2 (N=16)): 37.5%
- Discontinuation due to AE (adverse event), number of patients ([1]; G2 + G3 (N=29)): 3.00
- Discontinuation due to AE (adverse event), percent of patients ([1]; G2 + G3 (N=29)): 10.3%
- Discontinuation due to PD (progressive disease), number of patients ([1]; G2 + G3 (N=29)): 11.0
- Discontinuation due to PD (progressive disease), percent of patients ([1]; G2 + G3 (N=29)): 37.9%
- Discontinuation due to AE (adverse event), number of patients ([1]; G3 (N=13)): 2.00
- Discontinuation due to AE (adverse event), percent of patients ([1]; G3 (N=13)): 15.4%
- Discontinuation due to PD (progressive disease), number of patients ([1]; G3 (N=13)): 5.00
- Discontinuation due to PD (progressive disease), percent of patients ([1]; G3 (N=13)): 38.5%
- Discontinuation due to AE (adverse event), number of patients ([1]; Total (N=38)): 7.00
- Discontinuation due to AE (adverse event), percent of patients ([1]; Total (N=38)): 18.4%
- Discontinuation due to PD (progressive disease), number of patients ([1]; Total (N=38)): 12.0
- Discontinuation due to PD (progressive disease), percent of patients ([1]; Total (N=38)): 31.6%
- CD10 and CD38 expression on transitional B cells over time ([2]; iNHL patients on cerdulatinib, FIG. 5B representative Group 1 patient): loss of CD10 and CD38 expression
- Frequency of B cells of lymphocytes over time [2, 4]: did not change
- Frequency of CD10 negative (non-transitional) naïve B cells over time [2, 4]: rise and increase
- Frequency of total naïve B cells over time [2, 4]: did not change
- Frequency of transitional (CD10+) B cells of total B cells over time [2, 4]: decreased; also recorded: induces loss of transitional B cell phenotype
- Frequencies of switched memory or double negative B cells over time ([2]; iNHL patients, baseline (C1) vs cycles 2, 3, 6, FIG. 8): no meaningful impact; also recorded: does not impact
- Impact on the measured B cell populations ([2]; iNHL patients, over a period of 6 months on therapy): very little impact
- Best Response CR, number of patients ([3]; G1 (N=9)): 1.00
- Best Response CR, percent of patients ([3]; G1 (N=9)): 11.1%
- Best Response PD, number of patients ([3]; G1 (N=9)): 1.00
- Best Response PD, percent of patients ([3]; G1 (N=9)): 11.1%
- Best Response PR, number of patients ([3]; G1 (N=9)): 1.00
- Best Response PR, percent of patients ([3]; G1 (N=9)): 11.1%
- Best Response SD, number of patients ([3]; G1 (N=9)): 2.00
- Best Response SD, percent of patients ([3]; G1 (N=9)): 22.2%
- ORR (overall response rate), percent of patients ([3]; G1 (N=9)): 22% and 22.2%
- ORR + clinical benefit, number of patients ([3]; G1 (N=9)): 4.00
- ORR + clinical benefit, percent of patients ([3]; G1 (N=9)): 44.4%
- ORR, number of patients ([3]; G1 (N=9)): 2.00
- Best Response CR, number of patients ([3]; G2 (N=16)): 5.00
- Best Response CR, percent of patients ([3]; G2 (N=16)): 31.3%
- Best Response PD, number of patients ([3]; G2 (N=16)): 0 (0%)
- Best Response PD, percent of patients ([3]; G2 (N=16)): 0 (0%)
- Best Response PR, number of patients ([3]; G2 (N=16)): 8.00
- Best Response PR, percent of patients ([3]; G2 (N=16)): 50.0%
- Best Response SD, number of patients ([3]; G2 (N=16)): 1.00
- Best Response SD, percent of patients ([3]; G2 (N=16)): 6.3%
- ORR (overall response rate), percent of patients ([3]; G2 (N=16)): 81% and 81.3%
- ORR + clinical benefit, number of patients ([3]; G2 (N=16)): 14.0
- ORR + clinical benefit, percent of patients ([3]; G2 (N=16)): 87.5%
- ORR, number of patients ([3]; G2 (N=16)): 13.0
- Best Response CR, number of patients ([3]; G2 + G3 (N=29)): 6.00
- Best Response CR, percent of patients ([3]; G2 + G3 (N=29)): 20.7%
- Best Response PD, number of patients ([3]; G2 + G3 (N=29)): 3.00
- Best Response PD, percent of patients ([3]; G2 + G3 (N=29)): 10.3%
- Best Response PR, number of patients ([3]; G2 + G3 (N=29)): 14.0
- Best Response PR, percent of patients ([3]; G2 + G3 (N=29)): 48.3%
- Best Response SD, number of patients ([3]; G2 + G3 (N=29)): 4.00
- Best Response SD, percent of patients ([3]; G2 + G3 (N=29)): 13.8%
- ORR (overall response rate), percent of patients ([3]; G2 + G3 (N=29)): 69.0%
- ORR + clinical benefit, number of patients ([3]; G2 + G3 (N=29)): 24.0
- ORR + clinical benefit, percent of patients ([3]; G2 + G3 (N=29)): 82.8%
- ORR, number of patients ([3]; G2 + G3 (N=29)): 20.0
- Best Response CR, number of patients ([3]; G3 (N=13)): 1.00
- Best Response CR, percent of patients ([3]; G3 (N=13)): 7.7%
- Best Response PD, number of patients ([3]; G3 (N=13)): 3.00
- Best Response PD, percent of patients ([3]; G3 (N=13)): 23.1%
- Best Response PR, number of patients ([3]; G3 (N=13)): 6.00
- Best Response PR, percent of patients ([3]; G3 (N=13)): 46.2%
- Best Response SD, number of patients ([3]; G3 (N=13)): 3.00
- Best Response SD, percent of patients ([3]; G3 (N=13)): 23.1%
- ORR (overall response rate), percent of patients ([3]; G3 (N=13)): 53.8%
- ORR + clinical benefit, number of patients ([3]; G3 (N=13)): 10.0
- ORR + clinical benefit, percent of patients ([3]; G3 (N=13)): 76.9%
- ORR, number of patients ([3]; G3 (N=13)): 7.00
- Best Response CR, number of patients ([3]; Total (N=38)): 7.00
- Best Response CR, percent of patients ([3]; Total (N=38)): 18.4%
- Best Response PD, number of patients ([3]; Total (N=38)): 4.00
- Best Response PD, percent of patients ([3]; Total (N=38)): 10.5%
- Best Response PR, number of patients ([3]; Total (N=38)): 15.0
- Best Response PR, percent of patients ([3]; Total (N=38)): 39.5%
- Best Response SD, number of patients ([3]; Total (N=38)): 6.00
- Best Response SD, percent of patients ([3]; Total (N=38)): 15.8%
- ORR (overall response rate), percent of patients ([3]; Total (N=38)): 57.9%
- ORR + clinical benefit, number of patients ([3]; Total (N=38)): 28.0
- ORR + clinical benefit, percent of patients ([3]; Total (N=38)): 73.7%
- ORR, number of patients ([3]; Total (N=38)): 22.0
